Columns and labels:
[1] = tested on: Staphylococcus aureus LMG 15975; assay: Individual activity: MIC by microdilution in 96-well tray; assay type: cell-based; conditions: S. aureus LMG 15975 (MRSA+); substance alone
Excerpt: (§1) Within the framework of this invention, the individual activity makes reference to the antimicrobial activity exerted by the EO itself. The individual activity may, for example, be evaluated simply by measuring the MIC (minimum inhibitory concentration), which is the lowest concentration sufficient to inhibit, in vitro, the growth of a bacterial strain, after treating different bacterial strains by different EOs transformed or not according to the method of the invention.
(§2) To do this, the stock solutions of EO (EO-C and EO-T) were first diluted in DMSO at the rate of 10 μl EO in 300 μl DMSO, They were agitated and stored at ambient temperature, away from the light, in glass tubes autoclaved with threaded cap. The individual activity of the EOs was measured by the microdilution method in a 96 well tray so as to obtain the MIC, value at which a solution inhibits bacterial growth. The bacterial strains treated were S. aureus LMG 15975 (methicillin-resistant Staphylococcus aureus, hereinafter referred to as MRSA÷), E. coli LMG 8223, E. coli LMG 15862, P. aeruginosa LMG 6395, S. aureus LMG 8064, S. aureus LMG 16217 (methicillin-resistant Staphylococcus aureus, hereinafter referred to as MRSA++), E. faecalis LMG 8222, K. pneumoniae LMG 20218 and E. aerogenes LMG 2094. […]

S. aureus LMG 8064 = assay: Individual activity: MIC by microdilution; assay type: cell-based, Staphylococcus aureus; conditions: MSSA LMG 8064 strain; PV alone
Excerpt: as §1, §2

S. aureus LMG 16217 = assay: Individual activity: MIC of antibiotic alone, microdilution; assay type: cell-based, Staphylococcus aureus; conditions: S. aureus LMG 16217 (MRSA++)
Experimental: as §1, with “Within the framework of this invention, the individual activity makes reference to the antimicrobial activity exerted by the EO itself.” left out
To do this, the stock solutions of EO (EO-C and EO-T) were first diluted in DMSO at the rate of 10 μl EO in 300 μl DMSO, They were agitated and stored at ambient temperature, away from the light, in glass tubes autoclaved with threaded cap. The individual activity of the EOs was measured by the microdilution method in a 96 well tray so as to obtain the MIC, value at which a solution inhibits bacterial growth. The bacterial strains treated were S. aureus LMG 15975 (methicillin-resistant Staphylococcus aureus, hereinafter referred to as MRSA÷), E. coli LMG 8223, E. coli LMG 15862, P. aeruginosa LMG 6395, S. aureus LMG 8064, S. aureus LMG 16217 (methicillin-resistant Staphylococcus aureus, hereinafter referred to as MRSA++), E. faecalis LMG 8222, K. pneumoniae LMG 20218 and E. aerogenes LMG 2094. Inocula of the bacterial strains were prepared by placing colonies of 18-24 hours of strains suspended in a sterile physiological solution (NaCl 0.85%). These inocula were then adjusted and diluted so as to obtain a final concentration of 5×10^5 CFU/ml. Concerning the test solutions, 300 μl of stock solutions of EO (diluted in DMSO) were added to 4.7 ml culture medium (for example to Mueller Hinton Broth), so as to obtain a solution of EO of 2 mg/ml which was then diluted in series by half in multi-well trays. The final percentage of DMSO in the wells is less than 5%. After inoculation, the multi-well trays were incubated for 18-24 hours at 37° C. and the presence of bacteria was viewed by adding methyl tetrazolium (MU).

Individual activity MIC: PV/EO [1] | MIC of PV (S. aureus LMG 8064) | MIC of the antibiotic on this strain (S. aureus LMG 16217) | SMILES
4 µg/mL | 0.015 µg/mL | 64 µg/mL | CC1(C)S[C@@H]2[C@H](NC(=O)COc3ccccc3)C(=O)N2[C@H]1C(=O)O [PV, penicillin V]
– | – | 64 µg/mL | CC1(C)S[C@@H]2[C@H](NC(=O)[C@H](N)c3ccc(O)cc3)C(=O)N2[C@H]1C(=O)O [amoxicillin]
– | – | 64 µg/mL | CC1(C)S[C@@H]2[C@H](NC(=O)Cc3ccccc3)C(=O)N2[C@H]1C(=O)O [penicillin G]

Reference: US12460153B2, “Method for transforming an essential oil” (PRANAROM INTERNATIONAL S.A., priority 2019, dated 2025)
